# Reference: patent publication US8093218B2, “Peptide derived from vascular endothelial growth factor receptor-1 binding integrin α5β1 having proangiogenic activity” (Provincia Italiana della Congregazione dei Figli …, priority 2006, dated 2012)
# “Also recorded” adds a separate entry of the source.
# T1: VEGF (Homo sapiens, UniProt P15692)
# T1 sequence (P15692 207-320 limits assumed): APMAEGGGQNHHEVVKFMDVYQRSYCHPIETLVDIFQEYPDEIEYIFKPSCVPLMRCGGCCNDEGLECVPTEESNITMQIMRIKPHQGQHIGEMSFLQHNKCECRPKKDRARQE
# Tests used:
# [1] = test system: HUVEC adhesion to peptide 12; experiment: adhesion of HUVEC to peptide 12 in presence of chelating agents or anti-integrin antibodies; assay type: cell-based, human; conditions: HUVEC on plates covered with peptide 12
# Procedure: The peptide 12 or the BSA, as non-specific adhesion control, were linked on plates and the HUVEC added in the presence of chelating agents (EDTA or EGTA).
# The HUVEC were pre-incubated with an antibody against the integrin α5β1 or versus the integrinic subunit α6 and left to adhere on plates covered with peptide 12 or BSA.
# HUVEC [2] = experiment: formation of tubules of EC in Type I collagen gel; assay type: cell-based, human
# Procedure: It was tested the ability of the peptide 12 to induce the formation of tubules of EC. HUVEC cells were plated on 24 wells plates previously covered with a mixture of gel Type I collagen, in the absence or presence of 500 μg/ml peptide 12 or peptide 1. A second layer of gel Type I collagen was placed on the adherent cells. As shown, in the absence or presence of peptides, were added, in the culture medium, different concentrations of VEGF (40 or 100 nM), or 20 μg/ml of protein VEGFR-1/Fc.
# [3] = test system: HUVEC migration induced from VEGFR-1/Fc; experiment: EC migration in Boyden chambers induced by VEGFR-1/Fc; assay type: cell-based, human; conditions: HUVEC pre-incubated with peptide
# Procedure: In order to investigate the ability to peptide 12 to influence the migration of the EC induced from VEGFR-1/Fc, a process mediated from the integrin α5β1, the HUVEC were pre-incubated with peptide 12 and peptide 1 and placed in Boyden chambers in order to analyze the migration induced from VEGFR-1/Fc or fibronectin (FN). Data represent the average of 14 microscopic fields and are referred to as percentage of inhibition compared to the migration observed in the absence of peptides.
# integrin α5β1 [4] = molecular target: T2, integrin α5β1 (Homo sapiens, UniProt P05556+P08648); experiment: solid-phase binding of integrin α5β1 to alanine-substituted peptide 12 mutants; conditions: purified integrin α5β1 on plates covered with mutant peptides
# T2 sequence (P08648 42-894 limits assumed): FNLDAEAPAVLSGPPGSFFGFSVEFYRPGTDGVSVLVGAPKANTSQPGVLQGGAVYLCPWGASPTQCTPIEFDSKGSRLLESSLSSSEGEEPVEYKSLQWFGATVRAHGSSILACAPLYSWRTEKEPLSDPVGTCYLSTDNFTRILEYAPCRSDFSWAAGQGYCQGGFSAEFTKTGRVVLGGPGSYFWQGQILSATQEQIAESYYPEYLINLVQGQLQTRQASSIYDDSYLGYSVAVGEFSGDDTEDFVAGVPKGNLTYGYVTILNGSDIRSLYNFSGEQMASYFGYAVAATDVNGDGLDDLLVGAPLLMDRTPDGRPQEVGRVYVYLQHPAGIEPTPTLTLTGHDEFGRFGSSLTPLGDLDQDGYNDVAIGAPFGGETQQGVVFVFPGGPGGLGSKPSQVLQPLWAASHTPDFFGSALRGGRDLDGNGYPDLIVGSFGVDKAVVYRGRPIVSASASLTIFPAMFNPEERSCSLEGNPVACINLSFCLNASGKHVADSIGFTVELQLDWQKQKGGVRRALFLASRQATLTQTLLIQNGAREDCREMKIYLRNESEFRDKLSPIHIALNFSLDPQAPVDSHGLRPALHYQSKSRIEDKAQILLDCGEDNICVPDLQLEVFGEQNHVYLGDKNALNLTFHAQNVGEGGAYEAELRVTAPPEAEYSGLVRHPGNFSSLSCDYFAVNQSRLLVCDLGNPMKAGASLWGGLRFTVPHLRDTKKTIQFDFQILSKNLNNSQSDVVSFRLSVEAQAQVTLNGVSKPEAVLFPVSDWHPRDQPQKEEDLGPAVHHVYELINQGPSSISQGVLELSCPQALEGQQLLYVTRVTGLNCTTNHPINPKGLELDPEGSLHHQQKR
# T2 sequence (P08648 895-1049 partner limits assumed): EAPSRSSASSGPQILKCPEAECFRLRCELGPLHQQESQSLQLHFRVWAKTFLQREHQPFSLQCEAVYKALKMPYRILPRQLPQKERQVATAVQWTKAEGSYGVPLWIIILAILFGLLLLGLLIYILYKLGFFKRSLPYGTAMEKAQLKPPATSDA
# T2 sequence (P05556 21-798): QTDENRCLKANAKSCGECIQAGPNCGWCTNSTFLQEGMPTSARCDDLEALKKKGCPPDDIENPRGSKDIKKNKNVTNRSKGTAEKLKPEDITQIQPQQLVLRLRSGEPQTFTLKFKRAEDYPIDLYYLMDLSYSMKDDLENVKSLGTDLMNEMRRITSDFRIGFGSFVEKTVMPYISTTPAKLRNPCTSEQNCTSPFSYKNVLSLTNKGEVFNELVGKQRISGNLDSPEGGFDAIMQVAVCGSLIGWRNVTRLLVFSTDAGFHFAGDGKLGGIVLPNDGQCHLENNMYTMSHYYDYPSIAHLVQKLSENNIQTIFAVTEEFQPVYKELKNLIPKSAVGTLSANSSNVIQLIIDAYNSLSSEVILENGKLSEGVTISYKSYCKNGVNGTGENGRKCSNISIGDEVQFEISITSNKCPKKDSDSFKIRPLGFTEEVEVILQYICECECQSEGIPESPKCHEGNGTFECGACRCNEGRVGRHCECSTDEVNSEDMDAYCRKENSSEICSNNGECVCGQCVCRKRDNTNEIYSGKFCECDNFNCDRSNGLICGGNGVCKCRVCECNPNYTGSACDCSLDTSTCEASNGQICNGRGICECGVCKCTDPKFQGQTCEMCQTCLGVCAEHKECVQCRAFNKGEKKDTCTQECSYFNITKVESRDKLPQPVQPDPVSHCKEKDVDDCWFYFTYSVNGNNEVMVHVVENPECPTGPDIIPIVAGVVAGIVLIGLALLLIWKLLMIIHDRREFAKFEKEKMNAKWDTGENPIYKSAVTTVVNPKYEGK
# Procedure: Was also assessed the direct binding to integrin α5β1 with mutant peptides by a binding test on solid phase. The integrin α5β1 purified was added to plates covered with the various peptides and the amount bound was measured using an antibody anti-integrin α5β1 with a calorimetric method. The data were expressed as percentage of protein linked observed on plates covered with the original peptide 12.
# HUVEC [5] = experiment: cellular adhesion of HUVEC to alanine-substituted peptide 12 mutants; assay type: cell-based, human; conditions: mutant peptides covalently linked to plates
# Procedure: These peptides were tested for their ability to directly support the cellular adhesion. The ten peptides were covalently linked to plates, and were also tested, as negative controls, a peptide “scrambled” in which the amino acid sequence of the peptide 12 was modified (see Table 1.) (sP12) and BSA. The HUVEC were plated and allow to adhere. The results were expressed as percentage of the cellular adhesion observed on plates covered with the peptide 12.
# [6] = test system: HUVEC adhesion to VEGFR-1/Fc; experiment: inhibition by peptides of EC adhesion to VEGFR-1/Fc; assay type: cell-based, human; conditions: peptide added to HUVEC suspension before plating
# Procedure: (§1) In order to test the ability of the twelve chosen peptides to inhibit the adhesion of the EC to VEGFR-1 mediated from the integrin α5β1, every peptide was added to one suspension of HUVEC before plated on dishes covered with VEGFR-1/Fc or fibronectin (FN). The data were indicated as percentage of adhesion, calculated to the number of cells adhered on the substrate itself in absence of peptides.
# [7] = test system: HUVEC adhesion to fibronectin (FN); experiment: inhibition by peptides of EC adhesion to fibronectin; assay type: cell-based, human; conditions: peptide added to HUVEC suspension before plating
# Procedure: as §1
# angiogenesis = conditions: previously published; cited from earlier work
# VEGF = molecular target: T1, VEGF; conditions: previously published; cited from earlier work
# integrin α5β1 [8] = molecular target: T2, integrin α5β1; experiment: integrin α5β1 aggregation around peptide-coated magnetic beads (immunostaining); assay type: cell-based; design: endogenous in cells; host or cells: HUVEC; conditions: magnetic beads coated with peptide, immunostaining for integrin α5β1
# Procedure: The integrins not linked are widely distributed on cellular membrane, but after the ligand binding and the activation merged in distinct structures called focal contacts and ECM contact.
# (§2) It was examined whether the peptide 12 was able to induce aggregation of integrin α5β1 after the binding. EC adherent cells were incubated with magnetic beads coated with peptide 12, or peptide RGD or peptide RGE respectively as positive and negative controls, and immunostained with an antibody against integrin α5β1.
# [9] = molecular target: T3, integrin α5β1 on endothelial cells derived from human umbilical vein (HUVEC) (human, UniProt P08648 42-1049; P05556 21-798); experiment: magnetic beads coated with peptide on adherent HUVEC, immunostaining for integrin α5β1
# T3 construct: whole, on cells; Endogenous integrin on HUVEC in the adhesion, migration and bead tests; also called integrin α5β1 of the EC
# T3 sequence (P08648 42-1049, chain 1 of 2): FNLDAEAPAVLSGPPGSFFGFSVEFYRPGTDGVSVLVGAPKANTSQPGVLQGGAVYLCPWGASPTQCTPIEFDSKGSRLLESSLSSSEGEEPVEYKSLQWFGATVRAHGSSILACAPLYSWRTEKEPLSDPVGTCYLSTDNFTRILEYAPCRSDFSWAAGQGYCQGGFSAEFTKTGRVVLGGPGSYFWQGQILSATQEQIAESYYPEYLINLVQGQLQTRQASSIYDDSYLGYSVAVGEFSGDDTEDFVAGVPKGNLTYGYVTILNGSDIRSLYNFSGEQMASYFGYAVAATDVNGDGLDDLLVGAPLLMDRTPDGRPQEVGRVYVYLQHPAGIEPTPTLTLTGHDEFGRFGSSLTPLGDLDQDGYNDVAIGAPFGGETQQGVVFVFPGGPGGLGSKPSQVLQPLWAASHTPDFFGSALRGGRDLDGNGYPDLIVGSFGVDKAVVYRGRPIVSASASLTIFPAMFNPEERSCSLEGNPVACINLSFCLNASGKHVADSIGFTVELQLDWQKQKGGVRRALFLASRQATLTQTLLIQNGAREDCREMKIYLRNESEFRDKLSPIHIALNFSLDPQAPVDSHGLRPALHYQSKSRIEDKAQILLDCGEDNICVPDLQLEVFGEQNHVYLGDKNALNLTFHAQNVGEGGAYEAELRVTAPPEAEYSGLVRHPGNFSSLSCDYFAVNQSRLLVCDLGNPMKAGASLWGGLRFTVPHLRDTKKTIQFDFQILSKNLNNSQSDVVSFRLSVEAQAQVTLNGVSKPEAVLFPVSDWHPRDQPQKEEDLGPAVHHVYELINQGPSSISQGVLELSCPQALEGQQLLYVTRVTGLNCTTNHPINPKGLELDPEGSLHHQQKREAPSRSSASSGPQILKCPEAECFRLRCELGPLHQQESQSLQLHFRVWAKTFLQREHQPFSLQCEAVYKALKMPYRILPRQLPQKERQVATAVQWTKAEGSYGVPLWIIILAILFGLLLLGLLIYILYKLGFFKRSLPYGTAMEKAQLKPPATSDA
# T3 sequence (P05556 21-798, chain 2 of 2): as the sequence (P05556 21-798) above
# Procedure: as §2
# HUVEC [10] = experiment: adhesion of HUVEC on plates covered with recombinant protein; assay type: cell-based, human; conditions: plates covered with the protein; absorbance at 540 nm
# Procedure: The endothelial cells derived from human umbilical vein (HUVEC) were used to examine ability of the domain II to support the adhesion of EC in plates covered with the recombinant protein.
# The HUVEC were incubated on plates covered with VEGFR-1 FC, with the domain II (dII) recombinant, with fibronectin (FN) or bovine serum albumin (BSA). The protein VEGFR-1/Fc, and the fibronectin were used as positive controls and BSA as negative control.
# The cells assayed were coloured and the absorbance was measured.
# integrin α5β1 [11] = molecular target: T2, integrin α5β1; experiment: solid-phase binding of purified integrin α5β1 to plates covered with dII or VEGFR-1/Fc; conditions: anti-integrin α5β1 antibody, colorimetric, absorbance at 405 nm
# Procedure: The direct bind of the integrin α5β1 to the domain had been determined also with binding test on solid phase. The purified integrin α5β1 was added to plates covered with dII or with VEGFR-1/Fc like positive control and the integrin bound was measured using an antibody anti-integrin α5β1 and a colorimetric test.
molecule,measurement,setting,value
"O=C(O)CN(CCN(CC(=O)O)CC(=O)O)CC(=O)O [EDTA, reference compound]",effect of agent on adhesion of EC to peptide 12,[1],completely abolished adhesion of EC
"O=C(O)CN(CCOCCOCCN(CC(=O)O)CC(=O)O)CC(=O)O [EGTA, reference compound]",effect of agent on adhesion of EC to peptide 12,[1],completely abolished adhesion of EC
"GRPFVEMYSE (listed as Homo sapiens) [peptide 1, used as negative control]",effect on VEGF-induced tubule formation,HUVEC [2]; 500 μg/ml peptide with VEGF 40 nM,neither increased the effect of VEGF
same,induction of formation of tubules of EC,"HUVEC [2]; 500 μg/ml peptide, collagen I matrix",did not induce the formation of tubules
same,inhibition of EC migration induced by VEGFR-1/Fc,[3],completely ineffective
His 223 peptide mutant in Ala: peptide 12 with His 223 mutated to alanine (NYLTARQ),role of replaced residue in integrin α5β1 binding to mutant peptide relative to peptide 12,integrin α5β1 [4],important in supporting the protein/protein interaction
same,cellular adhesion to mutant peptide relative to peptide 12,HUVEC [5],comparable
same,cellular adhesion to mutant peptide relative to peptide 12,HUVEC [5]; listed as His 223,significantly reduce
KFPLDTLIPDG (listed as Homo sapiens) [peptide 7],inhibition of adhesion of EC to VEGFR-1/Fc,[6],effectively blocked; also recorded: inhibit cellular adhesion to sVEGFR-1
same,inhibition of adhesion of EC to fibronectin,[7],partially inhibit
NITVTLKKFPL (listed as Homo sapiens) [peptide 5],angiogenesis inhibitor activity,angiogenesis,act as an angiogenesis inhibitor
same,inhibition of adhesion of EC to VEGFR-1/Fc,[6],effectively blocked; also recorded: inhibit cellular adhesion to sVEGFR-1
same,binding to VEGF / inhibition of VEGF binding to its receptors,VEGF,without binding to VEGF or inhibiting VEGF binding to its receptors
"RGE [peptide RGE, reference compound]",integrin α5β1 aggregation / bead attachment on EC,integrin α5β1 [8],No beads covered with the peptide RGE was attached with HUVEC
TEGRELVIPARVT (listed as Homo sapiens) [peptide 4],inhibition of adhesion of EC to VEGFR-1/Fc,[6],effectively blocked; also recorded: inhibit cellular adhesion to sVEGFR-1
same,inhibition of adhesion of EC to fibronectin,[7],partially inhibit
Y220A: peptide 12 with Tyr 220 replaced with alanine (NALTHRQ),role of replaced residue in integrin α5β1 binding to mutant peptide relative to peptide 12,integrin α5β1 [4],residue more critical to the integrin binding
same,cellular adhesion to mutant peptide relative to peptide 12,HUVEC [5],significantly reduce
same,cellular adhesion to mutant peptide relative to peptide 12,HUVEC [5]; listed as Tyr 220 with ALA,completely abolished cellular adhesion
"NYLTHRQ (Covalently linked to plates or coated on magnetic beads, or added in solution to HUVEC; also called P12; original peptide 12) [peptide 12 (NYLTHRQ, VEGFR-1 residues 219-225)]",binding result,[9],binds
"dII recombinant: recombinant protein corresponding to VEGFR-1 domain II (residues 129-229), produced in SF9 cells (protein, left off: small tags and cut ends, recombinant protein corresponding to VEGFR-1 domain II (residues 129-229), produced in SF9 cells) SDTGRPFVEMYSEIPEIIHMTEGRELVIPCRVTSPNITVTLKKFPLDTLIPDGKRIIWDSRKGFIISNATYKEIGLLTCEATVNGHLYKTNYLTHRQTNTI",adhesion of HUVEC to coated protein,HUVEC [10],supported the adhesion of the HUVEC
same,amount of integrin α5β1 bound to coated protein,integrin α5β1 [11],a similar amount of integrin interacted
"VEGFR-1/Fc: sVEGFR-1 fusion protein with the Fc domain of human immunoglobulins (protein, left off: a dimerising Fc or GST, sVEGFR-1 fusion protein with the Fc domain of human immunoglobulins) SKLKDPELSLKGTQHIMQAGQTLHLQCRGEAAHKWSLPEMVSKESERLSITKSACGRNGKQFCSTLTLNTAQANHTGFYSCKYLAVPTSKKKETESAIYIFISDTGRPFVEMYSEIPEIIHMTEGRELVIPCRVTSPNITVTLKKFPLDTLIPDGKRIIWDSRKGFIISNATYKEIGLLTCEATVNGHLYKTNYLTHRQTNTIIDVQISTPRPVKLLRGHTLVLNCTATTPLNTRVQMTWSYPDEKNKRASVRRRIDQSNSHANIFYSVLTIDKMQNKDKGLYTCRVRSGPSFKSVNTSVHIYDKAFITVKHRKQQVLETVAGKRSYRLSMKVKAFPSPEVVWLKDGLPATEKSARYLTRGYSLIIKDVTEEDAGNYTILLSIKQSNVFKNLTATLIVNVKPQIYEKAVSSFPDPALYPLGSRQILTCTAYGIPQPTIKWFWHPCNHNHSEARCDFCSNNEESFILDADSNMGNRIESITQRMAIIEGKNKMASTLVVADSRISGIYICIASNKVGTVGRNISFYITDVPNGFHVNLEKMPTEGEDLKLSCTVNKFLYRDVTWILLRTVNNRTMHYSISKQKMAITKEHSITLNLTIMNVSLQDSGTYACRARNVYTGEEILQKKEITIRGEHCNKKAVFSRISKFKSTRNDCTTQSNVKH",effect of VEGFR-1/Fc on constitution of tubules,HUVEC [2]; 20 μg/ml VEGFR-1/Fc in culture medium,strong inhibition of the constitution of tubules
same,amount of integrin α5β1 bound to coated protein,integrin α5β1 [11],a similar amount of integrin interacted
